Laboratory results taken from the supplement of paper PMC9663587.

System: SUM149
Assay: area over the GR curve, 72 h; higher = more effect;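 note: Dye Drop or Deep Dye Drop imaging of viable cells in 384-well plates (Hoechst nuclei, LIVE/DEAD dye), nine half-log doses, GR normalized to DMSO controls and time-zero plates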

Compound	area over the GR curve
CC[C@@H]1C(=O)N(C)c2cnc(Nc3ccc(C(=O)N[C@H]4CC[C@H](N5CCN(CC6CC6)CC5)CC4)cc3OC)nc2N1C(C)C [Volasertib/BI6727] (max 1 µM)	0.569 GR
O=C(CCCCCCC(=O)Nc1ccccc1)NO [Vorinostat] (max 10 µM)	0.225 GR
C=CC(=O)Nc1ccc(C(=O)Nc2[nH]nc3c2CN(C(=O)N[C@H](CN(C)C)c2ccccc2)C3(C)C)cc1 [YKL-5-124] (max 10 µM)	0.875 GR
CN1CCN(C(=O)c2ccc3cc(CCNc4ncnc5ccc(C#N)cc45)ccc3c2)CC1 [senexin b] (max 10 µM)	0.129 GR

System: SUM190PT
Assay: area over the GR curve, 72 h; higher = more effect;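 note: Dye Drop or Deep Dye Drop imaging of viable cells in 384-well plates (Hoechst nuclei, LIVE/DEAD dye), nine half-log doses, GR normalized to DMSO controls and time-zero plates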

Compound	area over the GR curve
CC[C@@H]1C(=O)N(C)c2cnc(Nc3ccc(C(=O)N[C@H]4CC[C@H](N5CCN(CC6CC6)CC5)CC4)cc3OC)nc2N1C(C)C [Volasertib/BI6727] (max 1 µM)	0.621 GR
O=C(CCCCCCC(=O)Nc1ccccc1)NO [Vorinostat] (max 10 µM)	0.426 GR
C=CC(=O)Nc1ccc(C(=O)Nc2[nH]nc3c2CN(C(=O)N[C@H](CN(C)C)c2ccccc2)C3(C)C)cc1 [YKL-5-124] (max 10 µM)	0.831 GR
CN1CCN(C(=O)c2ccc3cc(CCNc4ncnc5ccc(C#N)cc45)ccc3c2)CC1 [senexin b] (max 10 µM)	0.435 GR

System: HCC1187
Assay: area over the GR curve, 72 h; higher = more effect;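 note: Dye Drop or Deep Dye Drop imaging of viable cells in 384-well plates (Hoechst nuclei, LIVE/DEAD dye), nine half-log doses, GR normalized to DMSO controls and time-zero plates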

Compound	area over the GR curve
CC[C@@H]1C(=O)N(C)c2cnc(Nc3ccc(C(=O)N[C@H]4CC[C@H](N5CCN(CC6CC6)CC5)CC4)cc3OC)nc2N1C(C)C [Volasertib/BI6727] (max 1 µM)	0.883 GR
O=C(CCCCCCC(=O)Nc1ccccc1)NO [Vorinostat] (max 10 µM)	0.303 GR
C=CC(=O)Nc1ccc(C(=O)Nc2[nH]nc3c2CN(C(=O)N[C@H](CN(C)C)c2ccccc2)C3(C)C)cc1 [YKL-5-124] (max 10 µM)	0.822 GR
CN1CCN(C(=O)c2ccc3cc(CCNc4ncnc5ccc(C#N)cc45)ccc3c2)CC1 [senexin b] (max 10 µM)	-0.306 GR

System: BT474
Assay: area over the GR curve, 72 h; higher = more effect;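 note: Dye Drop or Deep Dye Drop imaging of viable cells in 384-well plates (Hoechst nuclei, LIVE/DEAD dye), nine half-log doses, GR normalized to DMSO controls and time-zero plates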

Compound	area over the GR curve
CC[C@@H]1C(=O)N(C)c2cnc(Nc3ccc(C(=O)N[C@H]4CC[C@H](N5CCN(CC6CC6)CC5)CC4)cc3OC)nc2N1C(C)C [Volasertib/BI6727] (max 1 µM)	0.636 GR
O=C(CCCCCCC(=O)Nc1ccccc1)NO [Vorinostat] (max 10 µM)	0.136 GR
C=CC(=O)Nc1ccc(C(=O)Nc2[nH]nc3c2CN(C(=O)N[C@H](CN(C)C)c2ccccc2)C3(C)C)cc1 [YKL-5-124] (max 10 µM)	0.944 GR
CN1CCN(C(=O)c2ccc3cc(CCNc4ncnc5ccc(C#N)cc45)ccc3c2)CC1 [senexin b] (max 10 µM)	0.0613 GR

System: MDAMB415
Assay: area over the GR curve, 72 h; higher = more effect

Compound	area over the GR curve
CC[C@@H]1C(=O)N(C)c2cnc(Nc3ccc(C(=O)N[C@H]4CC[C@H](N5CCN(CC6CC6)CC5)CC4)cc3OC)nc2N1C(C)C [Volasertib/BI6727] (max 1 µM)	0.546 GR
O=C(CCCCCCC(=O)Nc1ccccc1)NO [Vorinostat] (max 10 µM)	0.172 GR
C=CC(=O)Nc1ccc(C(=O)Nc2[nH]nc3c2CN(C(=O)N[C@H](CN(C)C)c2ccccc2)C3(C)C)cc1 [YKL-5-124] (max 10 µM)	0.664 GR
CN1CCN(C(=O)c2ccc3cc(CCNc4ncnc5ccc(C#N)cc45)ccc3c2)CC1 [senexin b] (max 10 µM)	0.173 GR

System: HCC1569
Assay: area over the GR curve, 72 h; higher = more effect

Compound	area over the GR curve
CC[C@@H]1C(=O)N(C)c2cnc(Nc3ccc(C(=O)N[C@H]4CC[C@H](N5CCN(CC6CC6)CC5)CC4)cc3OC)nc2N1C(C)C [Volasertib/BI6727] (max 1 µM)	0.375 GR
O=C(CCCCCCC(=O)Nc1ccccc1)NO [Vorinostat] (max 10 µM)	0.163 GR
C=CC(=O)Nc1ccc(C(=O)Nc2[nH]nc3c2CN(C(=O)N[C@H](CN(C)C)c2ccccc2)C3(C)C)cc1 [YKL-5-124] (max 10 µM)	0.736 GR
CN1CCN(C(=O)c2ccc3cc(CCNc4ncnc5ccc(C#N)cc45)ccc3c2)CC1 [senexin b] (max 10 µM)	0.158 GR

System: HCC38
Assay: area over the GR curve, 72 h; higher = more effect

Compound	area over the GR curve
CC[C@@H]1C(=O)N(C)c2cnc(Nc3ccc(C(=O)N[C@H]4CC[C@H](N5CCN(CC6CC6)CC5)CC4)cc3OC)nc2N1C(C)C [Volasertib/BI6727] (max 1 µM)	0.59 GR
O=C(CCCCCCC(=O)Nc1ccccc1)NO [Vorinostat] (max 10 µM)	0.284 GR
C=CC(=O)Nc1ccc(C(=O)Nc2[nH]nc3c2CN(C(=O)N[C@H](CN(C)C)c2ccccc2)C3(C)C)cc1 [YKL-5-124] (max 10 µM)	0.928 GR
CN1CCN(C(=O)c2ccc3cc(CCNc4ncnc5ccc(C#N)cc45)ccc3c2)CC1 [senexin b] (max 10 µM)	0.152 GR

System: HCC1143
Assay: area over the GR curve, 72 h; higher = more effect

Compound	area over the GR curve
CC[C@@H]1C(=O)N(C)c2cnc(Nc3ccc(C(=O)N[C@H]4CC[C@H](N5CCN(CC6CC6)CC5)CC4)cc3OC)nc2N1C(C)C [Volasertib/BI6727] (max 1 µM)	0.729 GR
O=C(CCCCCCC(=O)Nc1ccccc1)NO [Vorinostat] (max 10 µM)	0.294 GR
C=CC(=O)Nc1ccc(C(=O)Nc2[nH]nc3c2CN(C(=O)N[C@H](CN(C)C)c2ccccc2)C3(C)C)cc1 [YKL-5-124] (max 10 µM)	0.788 GR
CN1CCN(C(=O)c2ccc3cc(CCNc4ncnc5ccc(C#N)cc45)ccc3c2)CC1 [senexin b] (max 10 µM)	0.22 GR

System: MDAMB468
Assay: area over the GR curve, 72 h; higher = more effect

Compound	area over the GR curve
CC[C@@H]1C(=O)N(C)c2cnc(Nc3ccc(C(=O)N[C@H]4CC[C@H](N5CCN(CC6CC6)CC5)CC4)cc3OC)nc2N1C(C)C [Volasertib/BI6727] (max 1 µM)	0.928 GR
O=C(CCCCCCC(=O)Nc1ccccc1)NO [Vorinostat] (max 10 µM)	0.217 GR
C=CC(=O)Nc1ccc(C(=O)Nc2[nH]nc3c2CN(C(=O)N[C@H](CN(C)C)c2ccccc2)C3(C)C)cc1 [YKL-5-124] (max 10 µM)	1.11 GR
CN1CCN(C(=O)c2ccc3cc(CCNc4ncnc5ccc(C#N)cc45)ccc3c2)CC1 [senexin b] (max 10 µM)	0.28 GR

System: SUM1315
Assay: area over the GR curve, 72 h; higher = more effect

Compound	area over the GR curve
CC[C@@H]1C(=O)N(C)c2cnc(Nc3ccc(C(=O)N[C@H]4CC[C@H](N5CCN(CC6CC6)CC5)CC4)cc3OC)nc2N1C(C)C [Volasertib/BI6727] (max 1 µM)	0.664 GR
O=C(CCCCCCC(=O)Nc1ccccc1)NO [Vorinostat] (max 10 µM)	0.166 GR
C=CC(=O)Nc1ccc(C(=O)Nc2[nH]nc3c2CN(C(=O)N[C@H](CN(C)C)c2ccccc2)C3(C)C)cc1 [YKL-5-124] (max 10 µM)	0.703 GR
CN1CCN(C(=O)c2ccc3cc(CCNc4ncnc5ccc(C#N)cc45)ccc3c2)CC1 [senexin b] (max 10 µM)	0.175 GR

System: HTERT_HME1
Assay: area over the GR curve, 72 h; higher = more effect

Compound	area over the GR curve
CC[C@@H]1C(=O)N(C)c2cnc(Nc3ccc(C(=O)N[C@H]4CC[C@H](N5CCN(CC6CC6)CC5)CC4)cc3OC)nc2N1C(C)C [Volasertib/BI6727] (max 1 µM)	0.415 GR
O=C(CCCCCCC(=O)Nc1ccccc1)NO [Vorinostat] (max 10 µM)	0.153 GR
C=CC(=O)Nc1ccc(C(=O)Nc2[nH]nc3c2CN(C(=O)N[C@H](CN(C)C)c2ccccc2)C3(C)C)cc1 [YKL-5-124] (max 10 µM)	0.889 GR
CN1CCN(C(=O)c2ccc3cc(CCNc4ncnc5ccc(C#N)cc45)ccc3c2)CC1 [senexin b] (max 10 µM)	0.177 GR

System: PDX1328
Assay: area over the GR curve, 72 h; higher = more effect

Compound	area over the GR curve
CC[C@@H]1C(=O)N(C)c2cnc(Nc3ccc(C(=O)N[C@H]4CC[C@H](N5CCN(CC6CC6)CC5)CC4)cc3OC)nc2N1C(C)C [Volasertib/BI6727] (max 1 µM)	0.842 GR
O=C(CCCCCCC(=O)Nc1ccccc1)NO [Vorinostat] (max 10 µM)	0.36 GR
C=CC(=O)Nc1ccc(C(=O)Nc2[nH]nc3c2CN(C(=O)N[C@H](CN(C)C)c2ccccc2)C3(C)C)cc1 [YKL-5-124] (max 10 µM)	0.532 GR
CN1CCN(C(=O)c2ccc3cc(CCNc4ncnc5ccc(C#N)cc45)ccc3c2)CC1 [senexin b] (max 10 µM)	0.0976 GR

System: MGH312
Assay: area over the GR curve, 72 h; higher = more effect

Compound	area over the GR curve
CC[C@@H]1C(=O)N(C)c2cnc(Nc3ccc(C(=O)N[C@H]4CC[C@H](N5CCN(CC6CC6)CC5)CC4)cc3OC)nc2N1C(C)C [Volasertib/BI6727] (max 1 µM)	0.801 GR
O=C(CCCCCCC(=O)Nc1ccccc1)NO [Vorinostat] (max 10 µM)	0.37 GR
C=CC(=O)Nc1ccc(C(=O)Nc2[nH]nc3c2CN(C(=O)N[C@H](CN(C)C)c2ccccc2)C3(C)C)cc1 [YKL-5-124] (max 10 µM)	0.923 GR
CN1CCN(C(=O)c2ccc3cc(CCNc4ncnc5ccc(C#N)cc45)ccc3c2)CC1 [senexin b] (max 10 µM)	0.418 GR
